Data reported in patent publication US4188378A, “Anticancer and antiviral activity of 9-β-D-arabinofuranosyl-2-fluoroadenine” (The United States of America as represented by the …, priority 1978, dated 1980).

Key:
[1] = background statement; cited from earlier work
Leukemia L1210 = test: Therapeutic activity against leukemia L1210 implanted i.p. in mice; format: in vivo
Description: (§1) Inhibition of DNA polymerase is considered to be responsible for the biologic activity of AraA. The levels of F-AraATP attainable in leukemia L1210 cells in mice from the administration of 2-F-AraA are much higher than the level of AraATP atainable in these cells after administration of AraA. As a result of the maintenance of these levels of the inhibitor, F-AraATP, in them, the leukemia cells are effectively destroyed in animals. […] 2-F-AraA was also active against leukemia L1210 when administered by the oral route.
^a 10^5 L1210 ascites cells implanted i.p. on day 0.
^b Treatments reported were selected from a range of dose levels from
lethally toxic to apparently nontoxic.
more than 16% (1/6 treated mice) dying without gross evidence of
progressive leukemia (splenomegaly), except those treated orally, in whic
^c i.p. = intraperitoneal; oral = drug administered directly into
^d % ILS = % increase in life span, compared to untreated control;
excluding 60day survivors.
^e Based on median day of death in dying animals only. Figures in
parentheses based on % survivors.
2-F-AraA was given i.p. or orally on the basis of average mouse body weight. Therapeutic activity based on observed increase in median life span of treated animals over untreated controls and on estimates of the number of viable L1210 cells present at the end of treatment is summarized in Table 2.

leukemias = details: background statement; cited from earlier work
adenosine deaminase = details: cited from earlier work
DNA polymerase = test: Inhibition of DNA polymerase by the triphosphate; format: biochemical; details: triphosphate compared with Ara-ATP
Description: as §1

SMILES | antiviral activity [1] | activity against leukemia L1210 (Leukemia L1210; AraA under similar conditions) | leukemia cells at the end of treatment (Leukemia L1210; AraA, 10^5 cells at the beginning) | therapeutic activity against L1210 leukemia (Leukemia L1210; in the absence of adenosine deaminase inhibitors) | antileukemic activity (leukemias) | deamination of AraA in vivo to AraH (adenosine deaminase) | inhibition of DNA polymerase (DNA polymerase)
Nc1ncnc2c1ncn2[C@@H]1O[C@H](CO)[C@@H](O)[C@@H]1O [AraA, 9-β-D-arabinofuranosyladenine, reference compound] | potent antiviral agent | essentially devoid of activity | 3×10^8 cells | no significant therapeutic activity | little potential | rapid deamination | 
O=c1[nH]cnc2c1ncn2[C@@H]1O[C@H](CO)[C@@H](O)[C@@H]1O [AraH, 9-β-D-arabinofuranosylhypoxanthine] | some antiviral |  |  |  | no antileukemic activity |  | 
Nc1nc(F)nc2c1ncn2[C@@H]1O[C@H](COP(=O)(O)OP(=O)(O)OP(=O)(O)O)[C@@H](O)[C@@H]1O [F-AraATP] |  |  |  |  |  |  | as potent an inhibitor of DNA polymerase as Ara-ATP
